Test results as given in ChEMBL document CHEMBL4130536, “Deinococcucins A-D, Aminoglycolipids from Deinococcus sp., a Gut Bacterium of the Carpenter Ant Camponotus japonicus” (J Nat Prod, 2017).

Columns and labels:
A549 = assay: Cytotoxicity in human A549 cells assessed as reduction in cell viability incubated for 72 hrs by SRB assay; format: functional, cell-based; details: A549, 72 h
SK-HEP1 = assay: Cytotoxicity in human SKHEP1 cells assessed as reduction in cell viability incubated for 72 hrs by SRB assay; format: functional, cell-based; details: SK-HEP1, 72 h
Staphylococcus aureus = assay: Antimicrobial activity against Staphylococcus aureus incubated for 24 hrs; format: functional
Salmonella enterica = assay: Antimicrobial activity against Salmonella enterica incubated for 24 hrs; format: functional
Bacillus subtilis = assay: Antimicrobial activity against Bacillus subtilis incubated for 24 hrs; format: functional
MDA-MB-231 = assay: Cytotoxicity in human MDA-MB-231 cells assessed as reduction in cell viability incubated for 72 hrs by SRB assay; format: functional, cell-based; details: MDA-MB-231, 72 h
Aspergillus fumigatus = assay: Antimicrobial activity against Aspergillus fumigatus incubated for 24 hrs; format: functional
Candida albicans = assay: Antimicrobial activity against Candida albicans incubated for 24 hrs; format: functional
Proteus hauseri = assay: Antimicrobial activity against Proteus hauseri incubated for 24 hrs; format: functional
Kocuria rhizophila = assay: Antimicrobial activity against Kocuria rhizophila incubated for 24 hrs; format: functional
K562 = assay: Cytotoxicity in human K562 cells assessed as reduction in cell viability incubated for 72 hrs by SRB assay; format: functional, cell-based; details: K562, 72 h
HCT-116 = assay: Cytotoxicity in human HCT116 cells assessed as reduction in cell viability incubated for 72 hrs by SRB assay; format: functional, cell-based; details: HCT-116, 72 h
Escherichia coli = assay: Antimicrobial activity against Escherichia coli incubated for 24 hrs; format: functional
SNU-638 = assay: Cytotoxicity in human SNU638 cells assessed as reduction in cell viability incubated for 72 hrs by SRB assay; format: functional, cell-based; details: SNU-638, 72 h
[1] = Toxicity in mouse Hepa1c1c7 cells at 2.5 to 20 uM; format: cell-based

Row | MIC (Staphylococcus aureus) [µM] | MIC (Salmonella enterica) [µM] | MIC (Bacillus subtilis) [µM] | MIC (Aspergillus fumigatus) [µM] | MIC (Candida albicans) [µM] | MIC (Proteus hauseri) [µM] | MIC (Kocuria rhizophila) [µM] | MIC (Escherichia coli) [µM] | Compound | IC50 (A549) [µM] | IC50 (SK-HEP1) [µM] | IC50 (MDA-MB-231) [µM] | IC50 (K562) [µM] | IC50 (HCT-116) [µM] | IC50 (SNU-638) [µM] | Activity [1]
1 | > 128 | > 128 | > 128 | > 128 | > 128 | > 128 | > 128 | > 128 | CCCCCCCCCCCCCCCCCNC(=O)[C@H](O)CO[C@H]1O[C@H](CO)[C@@H](O)[C@H](O)[C@H]1NC(C)=O | > 10 | > 10 | > 10 | > 10 | > 10 | > 10 | –
2 | > 128 | > 128 | > 128 | > 128 | > 128 | > 128 | > 128 | > 128 | CCCCCCC/C=C\CCCCCCCCNC(=O)[C@H](O)CO[C@H]1O[C@H](CO)[C@@H](O)[C@H](O)[C@H]1NC(C)=O | > 10 | > 10 | > 10 | > 10 | > 10 | > 10 | –
3 | > 128 | > 128 | > 128 | > 128 | > 128 | > 128 | > 128 | > 128 | CCCCCCCCCCCCCCCCNC(=O)[C@H](O)CO[C@H]1O[C@H](CO)[C@@H](O)[C@H](O)[C@H]1NC(C)=O | > 10 | > 10 | > 10 | > 10 | > 10 | > 10 | Non-Toxic
4 | > 128 | > 128 | > 128 | > 128 | > 128 | > 128 | > 128 | > 128 | CCCCCC/C=C\CCCCCCCCNC(=O)[C@H](O)CO[C@H]1O[C@H](CO)[C@@H](O)[C@H](O)[C@H]1NC(C)=O | > 10 | > 10 | > 10 | > 10 | > 10 | > 10 | Non-Toxic
